Values after ≈ are worked out from the molar mass of the structure shown.
Tested on: Escherichia coli ATCC 25922
Assay: microbe, parasite or virus in culture
Format: cell-based
Settings: ATCC25922, 37° C., 20 hours
Protocol: ATP (%) of the antibacterial activity was measured in the same manner as mentioned above, and the “minimum inhibitory concentration (MIC)” was measured as follows. MIC is the lowest concentration of an agent that may inhibit the growth of a bacterium. MIC is used as a parameter for the efficacy of an antibacterial agent, for the strength of bacterial sensitivity, or the like. The bacteria can grow (proliferate) when the concentration is not higher than MIC, and cannot grow when the concentration is higher than MIC. […] (CLSI), but, in this Example, its measurement was carried out by a broth microdilution method in accordance with “M100-S17/M7-A7” (Performance Standards for Antimicrobial Susceptibility Testing; Seventeenth Informational Supplement, Vol. 27 No. 1) published by CLSI on January, 2007. That is, sensitivity test of agents was carried out using a microtiter plate or test tubes. The bacteria were cultured in the liquid media for 4 to 6 hours, and thereafter absorbances at A600 were measured. Bacterial suspensions were diluted with Mueller-Hinton broth (MHB) according to McFarland #0.5. Each strain was added so as to attain about 10^5 CFU/ml (final concentration). Each peptide was prepared to an optional concentration, and the solutions were serially diluted from the concentration. The polypeptide at each concentration stage was added to a microplate or test tubes, and the bacterial suspension was added thereto. […] The plate was incubated at 37° C. for 20 hours, the lowest concentration where bacterial growth was inhibited was regarded as the minimum inhibitory concentration. With respect to each strain, Escherichia coli: ATCC 25922 (Escherichia coli ATCC 25922), Pseudomonas aeruginosa: ATCC 27853 (Pseudomonas aeruginosa ATCC 27853), Staphylococcus aureus: ATCC29213 (Staphylococcus aureus ATCC29213), Klebsiella pneumoniae: JCM 1662 (Klebsiella pneumoniae JCM 1662), enterobacteria (1): JCM 1232 (Enterobacter cloacae JCM 1232), enterobacteria (2): JCM 1235 (Enterobacter aerogenes JCM 1235), and Staphylococcus epidermidis: JCM 2414 (Staphylococcus epidermidis JCM 2414), were used. […] As the concentrations of the agents in ATP assay, the concentrations as described in the Tables were used.

| Structure (SMILES) | MIC |
| --- | --- |
| C[C@@H](O)[C@H]1C(=O)N2C(C(=O)O)=C(S[C@@H]3CN[C@H](C(=O)N(C)C)C3)[C@H](C)[C@H]12 [MEPM, meropenem, reference compound] | 0.008 to 0.06 µg/mL (≈ 0.0209 to 0.156 µM) |
| NC[C@H]1O[C@H](O[C@H]2[C@H](O)[C@@H](O[C@H]3O[C@H](CO)[C@@H](O)[C@H](N)[C@H]3O)[C@H](N)C[C@@H]2N)[C@H](N)C[C@@H]1O [TOB, tobramycin, reference compound] | 0.25 to 1 µg/mL (≈ 0.535 to 2.14 µM) |
